Experimental data from US11708348B2, “Protease inhibitors for treatment of coronavirus infections” (The Scripps Research Institute, priority 2021, dated 2023).
Where two headings read alike, the source gives them in different places.

Tested on: SARS-CoV-2 strain USA-WA1/2020
Experiment: microbe, parasite or virus in culture
Assay type: cell-based
Conditions: Severe acute respiratory syndrome coronavirus 2, HeLa-ACE2, 24 h, HeLa-ACE2 cells, SARS-CoV-2 infection, 24 h, read-out: EC50, uM (Hela)

O=C(Nc1ccccc1)C(=O)N[C@@H](CC1CCCCC1)C(=O)N[C@@H](C[C@@H]1CCNC1=O)C(=O)COc1c(F)c(F)cc(F)c1F [Compound 35, N1-((S)-3-cyclohexyl-1-oxo-1-(((S)-3-oxo-1-((S)-2-oxopyrrolidin-3-yl)-4-(2,3,5,6-tetrafluorophenoxy)butan-2-yl)amino)propan-2-yl)-N2-phenyloxalamide]
EC50 (class symbols): < 0.05 µM

CC(C)C[C@H](C)C(=O)N1CC2(CC2)C[C@H]1C(=O)N[C@@H](C[C@@H]1CCNC1=O)C(=O)COC(F)(F)F [Compound 748, (S)-5-((S)-2,4-dimethylpentanoyl)-N-((S)-3-oxo-1-((S)-2-oxopyrrolidin-3-yl)-4-(trifluoromethoxy)butan-2-yl)-5-azaspiro[2.4]heptane-6-carboxamide]
EC50: 0.05 to 0.2 µM

CC(C)C[C@H](NC(=O)OCc1cccc(Cl)c1)C(=O)N[C@@H](C[C@@H]1CCNC1=O)C(=O)COc1c(F)c(F)cc(F)c1F [Compound 22, 3-chlorobenzyl ((S)-4-methyl-1-oxo-1-(((S)-3-oxo-1-((S)-2-oxopyrrolidin-3-yl)-4-(2,3,5,6-tetrafluorophenoxy)butan-2-yl)amino)pentan-2-yl)carbamate]
EC50 (class symbols): 0.2 to 0.5 µM

CC(C)C[C@H](NC(=O)OCC1CCCC1)C(=O)N[C@@H](C[C@@H]1CCNC1=O)C(=O)COc1c(F)c(F)cc(F)c1F [Compound 137, cyclopentylmethyl ((S)-4-methyl-1-oxo-1-(((S)-3-oxo-1-((S)-2-oxopyrrolidin-3-yl)-4-(2,3,5,6-tetrafluorophenoxy)butan-2-yl)amino)pentan-2-yl)carbamate]
EC50 (class symbols): 0.5 to 1 µM

Cc1ccccc1NC(=O)C(=O)N[C@@H](CC(C)C)C(=O)N[C@@H](C[C@@H]1CCNC1=O)C(=O)COC(F)(F)F [Compound 206, N^1—((S)-4-methyl-1-oxo-1-(((S)-3-oxo-1-((S)-2-oxopyrrolidin-3-yl)-4-(trifluoromethoxy)butan-2-yl)amino)pentan-2-yl)-N^2-(o-tolyl)oxalamide]
EC50 (class symbols): < 0.05 µM

O=C1NCC[C@H]1C[C@H](NC(=O)[C@@H]1CC2(CC2)CN1C(=O)C(O)C1CCS(=O)(=O)CC1)C(=O)COC(F)(F)F (stereo partly drawn) [Compound 388, (6S)-5-(2-(l,l-dioxidotetrahydro-2H-thiopyran-4-yl)-2-hydroxyacetyl)-N-((S)-3-oxo-1-((S)-2-oxopyrrolidin-3-yl)-4-(trifluoromethoxy)butan-2-yl)-5-azaspiro[2.4]heptane-6-carboxamide]
EC50 (bound printed in cell): > 1 µM

O=C(Nc1c(F)cccc1Cl)C(=O)N1CC2(CC2)C[C@H]1C(=O)N[C@@H](C[C@@H]1CCNC1=O)C(=O)COC(F)(F)F [Compound 603, (S)-5-(2-((2-chloro-6-fluorophenyl)amino)-2-oxoacetyl)-N-((S)-3-oxo-1-((S)-2-oxo-pyrrolidin-3-yl)-4-(trifluoromethoxy)-butan-2-yl)-5-azaspiro[2.4]heptane-6-carboxamide]
EC50: 0.05 to 0.2 µM

CC(C)C[C@H](NC(=O)c1ccc2ccccc2n1)C(=O)N[C@@H](C[C@@H]1CCNC1=O)C(=O)COc1c(F)c(F)cc(F)c1F [Compound 20, N-((S)-4-methyl-1-oxo-1-(((S)-3-oxo-1-((S)-2-oxopyrrolidin-3-yl)-4-(2,3,5,6-tetrafluorophenoxy)butan-2-yl)amino)pentan-2-yl)quinoline-2-carboxamide]
EC50 (class symbols): 0.2 to 0.5 µM

CC(C)C[C@@H](O)C(=O)N1CCC(C)(C)C[C@H]1C(=O)N[C@@H](C[C@@H]1CCNC1=O)C(=O)COC(F)(F)F [Compound 641, (S)-1-((R)-2-hydroxy-4-methylpentanoyl)-4,4-dimethyl-N-((S)-3-oxo-1-((S)-2-oxopyrrolidin-3-yl)-4-(trifluoromethoxy)butan-2-yl)piperidine-2-carboxamide]
EC50: < 0.05 µM

CC(C)C[C@@H](O)C(=O)N1C[C@@H](CC2CCC2)C[C@H]1C(=O)N[C@@H](C[C@@H]1CCNC1=O)C(=O)COC(F)(F)F [Compound 772, (2S,4S)-4-(cyclobutylmethyl)-1-((R)-2-hydroxy-4-methylpentanoyl)-N-((S)-3-oxo-1-((S)-2-oxopyrrolidin-3-yl)-4-(trifluoromethoxy)butan-2-yl)pyrrolidine-2-carboxamide]
EC50: < 0.05 µM

O=C1NCC[C@H]1C[C@H](NC(=O)[C@@H]1[C@H]2CCC[C@H]2CN1C(=O)c1noc2ccc(F)cc12)C(=O)COC(F)(F)F [Compound 614, (1S,3aR,6aS)-2-(5-fluorobenzo[d]isoxazole-3-carbonyl)-N-((S)-3-oxo-1-((S)-2-oxopyrrolidin-3-yl)-4-(trifluoromethoxy)butan-2-yl)octahydrocyclopenta[c]pyrrole-1-carboxamide]
EC50: < 0.05 µM

CC(C)[C@@H](O)CC(=O)N1CC2(CC2)C[C@H]1C(=O)N[C@@H](C[C@@H]1CCNC1=O)C(=O)COC(F)(F)F [Compound 432, (S)-5-((S)-3-hydroxy-4-methylpentanoyl)-N-((S)-3-oxo-1-((S)-2-oxopyrrolidin-3-yl)-4-(trifluoromethoxy)butan-2-yl)-5-azaspiro[2.4]heptane-6-carboxamide]
EC50: 0.05 to 0.2 µM

C[C@@H]1C[C@H]2[C@H](C[C@H](C(=O)N[C@@H](C[C@@H]3CCNC3=O)C(=O)COC(F)(F)F)N2C(=O)C(=O)NC(C)(C)C)O1 [Compound 547, (2R,3aS,5R,6aS)-4-(2-(tert-butylamino)-2-oxoacetyl)-2-methyl-N-((S)-3-oxo-1-((S)-2-oxopyrrolidin-3-yl)-4-(trifluoromethoxy)butan-2-yl)hexahydro-2H-furo[3,2-b]pyrrole-5-carboxamide]
EC50 (given as bound): > 1 µM

Cc1ccccc1NC(=O)C(=O)N[C@@H](CC(C)(C)C)C(=O)N[C@@H](C[C@@H]1CCNC1=O)C(=O)COC(F)(F)F [Compound 504, N1-((S)-4,4-dimethyl-1-oxo-1-(((S)-3-oxo-1-((S)-2-oxopyrrolidin-3-yl)-4-(trifluoromethoxy)butan-2-yl)amino)pentan-2-yl)-N2-(o-tolyl)oxalamide]
EC50: < 0.05 µM

O=C(Nc1ccccc1F)C(=O)N[C@@H](CC1CCNC1=O)C(=O)N[C@@H](C[C@@H]1CCNC1=O)C(=O)COC(F)(F)F (stereo partly drawn) [Compound 218, N1-(2-fluorophenyl)-N2-((2S)-1-oxo-1-(((S)-3-oxo-1-((S)-2-oxopyrrolidin-3-yl)-4-(trifluoromethoxy)butan-2-yl)amino)-3-(2-oxopyrrolidin-3-yl)propan-2-yl)oxalamide]
EC50 (class symbols): 0.5 to 1 µM

[2H]C([2H])([2H])CCC(=O)N1CC2(CC2)C[C@H]1C(=O)N[C@@H](C[C@@H]1CCNC1=O)C(=O)COC(F)(F)F [Compound 764, (S)-5-(butanoyl-4,4,4-d3)-N-((S)-3-oxo-1-((S)-2-oxopyrrolidin-3-yl)-4-(trifluoromethoxy)butan-2-yl)-5-azaspiro[2.4]heptane-6-carboxamide]
EC50: 0.05 to 0.2 µM

CC(C)C[C@H](NC(=O)C(Nc1ccccc1F)C(F)(F)F)C(=O)N[C@@H](C[C@@H]1CCNC1=O)C(=O)COc1c(F)c(F)cc(F)c1F (stereo partly drawn) [Compound 97, (2S)-4-methyl-N-((S)-3-oxo-1-((S)-2-oxopyrrolidin-3-yl)-4-(2,3,5,6-tetrafluorophenoxy)butan-2-yl)-2-(3,3,3-trifluoro-2-((2-fluorophenyl)-amino)propanamido)-pentanamide]
EC50 (class symbols): 0.2 to 0.5 µM

CC(C)C[C@H](NC(=O)c1cc(-c2ccccc2F)on1)C(=O)N[C@@H](C[C@@H]1CCNC1=O)C(=O)COC(F)(F)F [Compound 171, 5-(2-fluorophenyl)-N-((S)-4-methyl-1-oxo-1-(((S)-3-oxo-1-((S)-2-oxopyrrolidin-3-yl)-4-(trifluoromethoxy)butan-2-yl)amino)pentan-2-yl)isoxazole-3-carboxamide]
EC50 (class symbols): < 0.05 µM

CC1(C)[C@@H]2[C@@H](C(=O)N[C@@H](C[C@@H]3CCNC3=O)C(=O)COC(F)(F)F)N(C(=O)[C@@H](O)c3ccccc3)C[C@@H]21 [Compound 416, (1R,2S,5S)-3-((S)-2-hydroxy-2-phenylacetyl)-6,6-dimethyl-N—((S)-3-oxo-1-((S)-2-oxopyrrolidin-3-yl)-4-(trifluoromethoxy)butan-2-yl)-3-azabicyclo[3.1.0]hexane-2-carboxamide]
EC50: < 0.05 µM

CC1(C(=O)N2C[C@@H]3CCC[C@@H]3[C@H]2C(=O)N[C@@H](C[C@@H]2CCNC2=O)C(=O)COC(F)(F)F)CCCO1 (stereo partly drawn) [Compound 310, (1S,3aR,6aS)-2-(2-methyltetrahydrofuran-2-carbonyl)-N-((S)-3-oxo-1-((S)-2-oxopyrrolidin-3-yl)-4-(trifluoromethoxy)butan-2-yl)octahydro-cyclopenta[c]pyrrole-1-carboxamide]
EC50 (bound printed in cell): > 1 µM

O=C(NC1CC(F)(F)C1)C(=O)N1CC2(CC2)C[C@H]1C(=O)N[C@@H](C[C@@H]1CCNC1=O)C(=O)COC(F)(F)F [Compound 588, (S)-5-(2-((3,3-difluorocyclobutyl)-amino)-2-oxoacetyl)-N-((S)-3-oxo-1-((S)-2-oxopyrrolidin-3-yl)-4-(trifluoromethoxy)butan-2-yl)-5-azaspiro[2.4]-heptane-6-carboxamide]
EC50: 0.2 to 0.5 µM

O=C1NCC[C@H]1C[C@H](NC(=O)[C@@H]1CC2(CC2)CN1C(=O)CO)C(=O)COC(F)(F)F [Compound 698, (S)-5-(2-hydroxyacetyl)-N-((S)-3-oxo-1-((S)-2-oxopyrrolidin-3-yl)-4-(trifluoromethoxy)butan-2-yl)-5-azaspiro[2.4]heptane-6-carboxamide]
EC50: 0.05 to 0.2 µM

CC(C)C[C@H](NC(=O)O[C@H]1CO[C@H]2OCC[C@H]21)C(=O)N[C@@H](C[C@@H]1CCNC1=O)C(=O)COc1c(F)c(F)cc(F)c1F [Compound 150, (3R,3aS,6aR)-hexahydrofuro[2,3-b]furan-3-yl ((S)-4-methyl-1-oxo-1-(((S)-3-oxo-1-((S)-2-oxopyrrolidin-3-yl)-4-(2,3,5,6-tetrafluorophenoxy)butan-2-yl)amino)pentan-2-yl)carbamate]
EC50 (class symbols): 0.2 to 0.5 µM
